From patent publication US7956074B2, “Aryl-isoxazolo-4-yl-oxadiazole derivatives” (Hoffman-La Roche Inc., priority 2005, dated 2011)

Biological target: T1, GABA A receptor α5β3γ2 (Homo sapiens, UniProt P18507+P31644)
T1 construct: expressed in transfected cells; host or cells: HEK293 cells, transiently transfected; membranes prepared
Experiment: [3H]flumazenil competition binding, human GABA A α5β3γ2
Details: competition for [3H]flumazenil (0.5 nM) binding, HEK293 cells expressing human (transiently transfected) α5β3γ2; means of two determinations; read-out: Ki[nM] hα5
Experimental: Membrane Preparation and Binding Assay
The affinity of compounds at GABA A receptor subtypes was measured by competition for [3H]flumazenil (85 Ci/mmol; Roche) binding to HEK293 cells expressing rat (stably transfected) or human (transiently transfected) receptors of composition
Cell pellets were suspended in Krebs-tris buffer (4.8 mM KCl, 1.2 mM CaCl2, 1.2 mM MgCl2, 120 mM NaCl, 15 mM Tris; pH 7.5; binding assay buffer), homogenized by polytron for ca. 20 sec on ice and centrifuged for 60 min at 4° C. (50000 g; Sorvall, rotor: SM24=20000 rpm). The cell pellets were resuspended in Krebs-tris buffer and homogenized by polytron for ca. 15 sec on ice. Protein was measured (Bradford method, Bio-Rad) and aliquots of 1 mL were prepared and stored at −80° C.
Assays were incubated to equilibrium for 1 hour at 4° C. and harvested onto GF/C uni-filters (Packard) by filtration using a Packard harvester and washing with ice-cold wash buffer (50 mM Tris; pH 7.5). After drying, filter-retained radioactivity was detected by liquid scintillation counting. Ki values were calculated using Excel-Fit (Microsoft) and are the means of two determinations.

Row | Molecule | Ki [nM]
1 | Cc1onc(-c2ccccc2)c1-c1nnc(-c2ccc3c(c2)n(C)c(=O)n3C)o1 [Example 51, 1,3-Dimethyl-5-[5-(5-methyl-3-phenyl-isoxazol-4-yl)-[1,3,4]oxadiazol-2-yl]-1,3-dihydro-benzoimidazol-2-one] | 128
2 | COc1cc(N2CC[S+]([O-])CC2)ccc1-c1nnc(-c2c(-c3ccccc3)noc2C)o1 [Example 56, 4-{3-Methoxy-4-[5-(5-methyl-3-phenyl-isoxazol-4-yl)-[1,3,4]oxadiazol-2-yl]-phenyl}-thiomorpholine 1-oxide] | 2.2
3 | Cc1onc(-c2ccccc2)c1-c1nnc(-c2ccccc2OCc2ccccc2)o1 [Example 46, 2-(2-Benzyloxy-phenyl)-5-(5-methyl-3-phenyl-isoxazol-4-yl)-[1,3,4]oxadiazole] | 255
4 | COc1cc(NCCN(C)C)c(F)cc1-c1nnc(-c2c(-c3ccccc3)noc2C)o1 [Example 135, N′-{2-Fluoro-5-methoxy-4-[5-(5-methyl-3-phenyl-isoxazol-4-yl)-[1,3,4]oxadiazol-2-yl]-phenyl}-N,N-dimethyl-ethane-1,2-diamine] | 9.4
5 | COc1cc(N2CCOCC2)ccc1-c1nnc(-c2conc2-c2ccccc2)o1 [Example 95, 4-{3-Methoxy-4-[5-(3-phenyl-isoxazol-4-yl)-[1,3,4]oxadiazol-2-yl]-phenyl}-morpholine] | 44.5
6 | COc1cc(N2CCOCC2)ccc1-c1nnc(-c2c(-c3ccccc3)noc2C#N)o1 [Example 115, 4-[5-(2-Methoxy-4-morpholin-4-yl-phenyl)-[1,3,4]oxadiazol-2-yl]-3-phenyl-isoxazole-5-carbonitrile] | 131
7 | COc1cc(N2CCOCC2)ccc1-c1nnc(-c2c(-c3ccccc3)noc2C2CC2)o1 [Example 77, 4-{4-[5-(5-Cyclopropyl-3-phenyl-isoxazol-4-yl)-[1,3,4]oxadiazol-2-yl]-3-methoxy-phenyl}-morpholine] | 2.1
8 | COc1cc(F)ccc1-c1nnc(-c2c(-c3ccccc3)noc2CO)o1 [Example 92, {4-[5-(4-Fluoro-2-methoxy-phenyl)-[1,3,4]oxadiazol-2-yl]-3-phenyl-isoxazol-5-yl}-methanol] | 293
9 | COc1ccc(OC)c(-c2nnc(-c3c(-c4ccccc4)noc3C)o2)c1 [Example 15, 2-(2,5-Dimethoxy-phenyl)-5-(5-methyl-3-phenyl-isoxazol-4-yl)-[1,3,4]oxadiazole] | 14.8
10 | COc1cc(N2CCNCC2)ccc1-c1nnc(-c2c(-c3ccccc3)noc2C)o1 [Example 66, 1-{3-Methoxy-4-[5-(5-methyl-3-phenyl-isoxazol-4-yl)-[1,3,4]oxadiazol-2-yl]-phenyl}-piperazine] | 13.4
11 | Cc1onc(-c2ccccc2)c1-c1nnc(-c2ccc(C(=O)N3CCOCC3)cc2)o1 [Example 80, {4-[5-(5-Methyl-3-phenyl-isoxazol-4-yl)-[1,3,4]oxadiazol-2-yl]-phenyl}-morpholin-4-yl-methanone] | 469
12 | COc1cc(N2CCOCC2)ccc1-c1nnc(-c2c(-c3cccc(F)c3)noc2C)o1 [Example 108, 4-(4-{5-[3-(3-Fluoro-phenyl)-5-methyl-isoxazol-4-yl]-[1,3,4]oxadiazol-2-yl}-3-methoxy-phenyl)-morpholine] | 11.3
13 | Cc1onc(-c2ccccc2)c1-c1nnc(-c2ccc3[nH]ccc3c2)o1 [Example 74, 5-[5-(5-Methyl-3-phenyl-isoxazol-4-yl)-[1,3,4]oxadiazol-2-yl]-1H-indole] | 134
14 | Cc1onc(-c2ccccc2)c1-c1nnc(-c2cc(F)c(N3CCS(=O)(=O)CC3)cc2F)o1 [Example 120, 4-{2,5-Difluoro-4-[5-(5-methyl-3-phenyl-isoxazol-4-yl)-[1,3,4]oxadiazol-2-yl]-phenyl}-thiomorpholine 1,1-dioxide] | 13.5
15 | COc1cc(NC(C)=O)ccc1-c1nnc(-c2c(-c3ccccc3)noc2C)o1 [Example 89, N-{3-Methoxy-4-[5-(5-methyl-3-phenyl-isoxazol-4-yl)-[1,3,4]oxadiazol-2-yl]-phenyl}-acetamide] | 4.6
16 | COc1cc(NC2CCOCC2)ccc1-c1nnc(-c2c(-c3ccccc3)noc2C2CC2)o1 [Example 82, {4-[5-(5-Cyclopropyl-3-phenyl-isoxazol-4-yl)-[1,3,4]oxadiazol-2-yl]-3-methoxy-phenyl}-(tetrahydro-pyran-4-yl)-amine] | 3.7
17 | COc1cc(NC(=O)C2CC2)ccc1-c1nnc(-c2c(-c3ccccc3)noc2C)o1 [Example 16, Cyclopropanecarboxylic acid {3-methoxy-4-[5-(5-methyl-3-phenyl-isoxazol-4-yl)-[1,3,4]oxadiazol-2-yl]-phenyl}-amide] | 7.7
18 | COc1cc(NCCSC)c(F)cc1-c1nnc(-c2c(-c3ccccc3)noc2C)o1 [Example 126, {2-Fluoro-5-methoxy-4-[5-(5-methyl-3-phenyl-isoxazol-4-yl)-[1,3,4]oxadiazol-2-yl]-phenyl}-(2-methylsulfanyl-ethyl)-amine] | 4.5

Row | Molecule | Ki [nM]
19 | COC(=O)c1ccc(-c2nnc(-c3c(-c4ccccc4)noc3C)o2)cc1 [Example 71, 4-[5-(5-Methyl-3-phenyl-isoxazol-4-yl)-[1,3,4]oxadiazol-2-yl]-benzoic acid methyl ester] | 289
20 | Cc1onc(-c2ccccc2)c1-c1nnc(-c2ccnc3ccccc23)o1 [Example 44, 4-[5-(5-Methyl-3-phenyl-isoxazol-4-yl)-[1,3,4]oxadiazol-2-yl]-quinoline] | 88.9
21 | Cc1onc(-c2ccccc2)c1-c1nnc(-c2cc(F)c(N3CCSCC3)cc2F)o1 [Example 119, 4-{2,5-Difluoro-4-[5-(5-methyl-3-phenyl-isoxazol-4-yl)-[1,3,4]oxadiazol-2-yl]-phenyl}-thiomorpholine] | 24.3
22 | Cc1onc(-c2ccccc2)c1-c1nnc(-c2cccc(S(C)(=O)=O)c2)o1 [Example 31, 2-(3-Methanesulfonyl-phenyl)-5-(5-methyl-3-phenyl-isoxazol-4-yl)-[1,3,4]oxadiazole] | 199
23 | Cc1onc(-c2ccccc2)c1-c1nnc(-c2cccc(F)c2F)o1 [Example 84, 2-(2,3-Difluoro-phenyl)-5-(5-methyl-3-phenyl-isoxazol-4-yl)-[1,3,4]oxadiazole] | 225
24 | Cc1onc(-c2ccccc2)c1-c1nnc(-c2cc(F)c(F)cc2F)o1 [Example 118, 2-(5-Methyl-3-phenyl-isoxazol-4-yl)-5-(2,4,5-trifluoro-phenyl)-[1,3,4]oxadiazole] | 149
25 | Cc1onc(-c2ccccc2)c1-c1nnc(-c2ccccc2OC(F)(F)F)o1 [Example 43, 2-(5-Methyl-3-phenyl-isoxazol-4-yl)-5-(2-trifluoromethoxy-phenyl)-[1,3,4]oxadiazole] | 131
26 | COc1cc(-n2ccnn2)ccc1-c1nnc(-c2c(-c3ccccc3)noc2C)o1 [Example 86, 2-(2-Methoxy-4-[1,2,3]triazol-1-yl-phenyl)-5-(5-methyl-3-phenyl-isoxazol-4-yl)-[1,3,4]oxadiazole] | 4.8
27 | Cc1onc(-c2ccccc2)c1-c1nnc(-c2ccc(N3CCS(=O)(=O)CC3)nc2)o1 [Example 141, 4-{5-[5-(5-Methyl-3-phenyl-isoxazol-4-yl)-[1,3,4]oxadiazol-2-yl]-pyridin-2-yl}-thiomorpholine 1,1-dioxide] | 17.7
28 | COc1cc(N2CCOCC2)ccc1-c1nnc(-c2c(-c3ccccc3)noc2Cl)o1 [Example 105, 4-{4-[5-(5-Chloro-3-phenyl-isoxazol-4-yl)-[1,3,4]oxadiazol-2-yl]-3-methoxy-phenyl}-morpholine] | 27.1
29 | Cc1onc(-c2ccccc2)c1-c1nnc(-c2ccc(N3C[C@@H](C)O[C@@H](C)C3)cc2)o1 [Example 41, rac-(2S,6R)-2,6-Dimethyl-4-{4-[5-(5-methyl-3-phenyl-isoxazol-4-yl)-[1,3,4]oxadiazol-2-yl]-phenyl}-morpholine] | 32.5
30 | Cc1onc(-c2ccccc2)c1-c1nnc(-c2cccnc2Cl)o1 [Example 6, 2-Chloro-3-[5-(5-methyl-3-phenyl-isoxazol-4-yl)-[1,3,4]oxadiazol-2-yl]-pyridine] | 146
31 | Cc1onc(-c2ccccc2)c1-c1nnc(-c2ccc(N3CCOCC3)cn2)o1 [Example 142, 4-{6-[5-(5-Methyl-3-phenyl-isoxazol-4-yl)-[1,3,4]oxadiazol-2-yl]-pyridin-3-yl}-morpholine] | 17.2
32 | 2-(4,5-Difluoro-2-methoxy-phenyl)-5-(5-methyl-3-phenyl-isoxazol-4-yl)-[1,3,4]oxadiazole [Example 87] | 43.8
33 | COc1cc(N2CCN(C)CC2)ccc1-c1nnc(-c2c(-c3ccccc3)noc2C)o1 [Example 67, 1-{3-Methoxy-4-[5-(5-methyl-3-phenyl-isoxazol-4-yl)-[1,3,4]oxadiazol-2-yl]-phenyl}-4-methyl-piperazine] | 15.5
34 | Cc1onc(-c2ccccc2)c1-c1nnc(-c2ccc(C(=O)NC3CC3)cc2)o1 [Example 78, N-Cyclopropyl-4-[5-(5-methyl-3-phenyl-isoxazol-4-yl)-[1,3,4]oxadiazol-2-yl]-benzamide] | 42.1
35 | COc1cc(NS(=O)(=O)C(C)C)ccc1-c1nnc(-c2c(-c3ccccc3)noc2C)o1 [Example 63, Propane-2-sulfonic acid {3-methoxy-4-[5-(5-methyl-3-phenyl-isoxazol-4-yl)-[1,3,4]oxadiazol-2-yl]-phenyl}-amide] | 42.8
